Tests used:
[1] = molecular target: GSK-3β (Homo sapiens, UniProt P49841); assay: GSK-3β kinase assay (calliper mobility shift assay); assay type: biochemical; details: for IC50: mean ± SD from two separate experiments, calliper mobility shift assay; for fold less active than 16b (GSK-3β inhibition): compared with 16b
[2] = test system: phosphorylation of GSK-3β at Ser9; assay: Western blot of p-GSK-3β (Ser9) in SH-SY5Y cells; assay type: cell-based, human; details: LiCl positive control, concentration not given; 2.5 h; control 0.33
From the text: GSK-3β is activated by phosphorylation at Tyr216 and is inhibited by phosphorylation at Ser9 [48]. As one of the substrates of Akt (protein kinase B), GSK-3 can inhibit Akt[49]. The inhibition of GSK-3β increases the p-Akt expression and activates the PI3K/Akt pathway, and that, in turn, phosphorylates the GSK-3β at the Ser9 site[50]^,[51]. […] As shown in Figure 6(A), LiCl greatly promoted GSK-3β phosphorylation at Ser9 (p-GSK-3β/GAPDH: 0.60 vs 0.33). […] Therefore, in cellular level, compound 16b was confirmed to have a direct effect on GSK-3β.
Figure 6. (A) The effect of 16b on phosphorylation of GSK-3β at Ser9; (B) the effect of 16b on β-catenin abundance. Protein expressions were detected by immunoblot analysis with a specific antibody. Values are reported as the mean ± SD of three independent experiments. *p < 0.05, **p < 0.01, ***p < 0.001 vs control.
SH-SY5Y cells (1 × 10^6) were seeded in 12-well plates (Corning, Los Altos, MA, USA) and incubated with compound 16b or LiCl at the indicated concentrations for 2.5 h at 37 °C in 5% CO2. At the end of incubation, cells were lysed by addition of ice-cold RIPA buffer containing a protease inhibitor cocktail. The protein quantification was determined using a BCA protein assay kit (Jiangsu KeyGEN BioTECH Co., Ltd., Nanjing, China). Cellular lysates were mixed with an equal volume of SDS (sodium dodecyl sulfate) loading buffer (Jiangsu KeyGEN BioTECH Co., Ltd., Nanjing, China) and separated by electrophoresis (Bio-rad Power Supplies Basic, Shanghai, China) in polyacrylamide gel. Proteins were transferred from acrylamide gels to nitrocellulose membranes and blocked in a blocking buffer (PBS, 5% non-fat milk) for 1.5 to 2 h at 20 °C. […] The blots were washed by TBST for 20 min and detected with ECL chemiluminescent reagent (Jiangsu KeyGEN BioTECH Co., Ltd., Nanjing, China) for 3 min. Pixel intensity was quantitated using gel imaging system (SYNGENE G:BOX/iChemi XR5, ISS, San Diego, CA, US) and Gel-Pro32 software (Media Cybernetics, Bethesda, MD, USA). […]

GSK-3β, sequence (P49841 whole entry): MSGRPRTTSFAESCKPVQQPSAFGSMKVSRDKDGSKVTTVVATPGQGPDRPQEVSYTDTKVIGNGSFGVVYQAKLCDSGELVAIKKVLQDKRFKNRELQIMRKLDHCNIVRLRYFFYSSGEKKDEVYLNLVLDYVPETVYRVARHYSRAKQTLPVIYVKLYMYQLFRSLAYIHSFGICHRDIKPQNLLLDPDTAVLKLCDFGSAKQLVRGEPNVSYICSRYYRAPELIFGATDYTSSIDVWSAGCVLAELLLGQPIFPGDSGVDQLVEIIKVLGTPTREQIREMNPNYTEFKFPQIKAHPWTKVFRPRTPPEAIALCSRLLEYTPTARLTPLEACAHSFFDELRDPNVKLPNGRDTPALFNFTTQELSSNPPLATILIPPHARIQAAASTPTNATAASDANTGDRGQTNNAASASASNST

## O=C(Nc1n[nH]c2cc(-c3cccnc3)sc12)C1CC1 [Compound 16a, N-(5-(pyridin-3-yl)-1H-thieno[3,2-c]pyrazol-3-yl)cyclopropanecarboxamide]
[1]
  IC50: 4.4 ± 0.2 nM
other
  melting point: 224 to 226 °C

## CCCC(=O)Nc1n[nH]c2cc(-c3cccnc3)sc12 [Compound 16c, N-(5-(pyridin-3-yl)-1H-thieno[3,2-c]pyrazol-3-yl)butyramide]
[1]
  fold less active than 16b (GSK-3β inhibition): about 10 fold
  IC50: 36 ± 1.7 nM
other
  melting point: 238 to 240 °C

## CCCS(=O)(=O)Nc1n[nH]c2cc(-c3cccnc3)sc12 [Compound 16d, N-(5-(pyridin-3-yl)-1H-thieno[3,2-c]pyrazol-3-yl)propane-1-sulphonamide]
[1]
  GSK-3β inhibitory activity (in words): very weak
  IC50: 1390 ± 55.2 nM
other
  melting point: 208 to 210 °C

## O=C(Nc1n[nH]c2cc(-c3cccnc3)sc12)c1ccccc1 [Compound 16e, N-(5-(pyridin-3-yl)-1H-thieno[3,2-c]pyrazol-3-yl)benzamide]
[1]
  fold less active than 16b (GSK-3β inhibition): about 10 fold
  IC50: 33 ± 1.6 nM
other
  melting point: > 240 °C

## O=C(Nc1n[nH]c2cc(-c3cncc(-c4ccccc4)c3)sc12)C1CC1 [Compound 17a, N-(5-(5-Phenylpyridin-3-yl)-1H-thieno[3,2-c]pyrazol-3-yl)cyclopropanecarboxamide]
[1]; compared with 16a
  fold less active than 16a (GSK-3β inhibition): about 4 fold
[1]
  IC50: 20 ± 1.1 nM
other
  melting point: > 240 °C

## CC(C)C(=O)Nc1n[nH]c2cc(-c3cncc(-c4ccccc4)c3)sc12 [Compound 17b, N-(5-(5-Phenylpyridin-3-yl)-1H-thieno[3,2-c]pyrazol-3-yl)isobutyramide]
[1]
  fold less active than 16b (GSK-3β inhibition): about 4 fold
  IC50: 14 ± 0.6 nM
other
  melting point: > 240 °C

## CCCC(=O)Nc1n[nH]c2cc(-c3cncc(-c4ccccc4)c3)sc12 [Compound 17c, N-(5-(5-Phenylpyridin-3-yl)-1H-thieno[3,2-c]pyrazol-3-yl)butyramide]
[1]
  IC50: 37 ± 1.3 nM
other
  melting point: > 240 °C

## CCCS(=O)(=O)Nc1n[nH]c2cc(-c3cncc(-c4ccccc4)c3)sc12 [Compound 17d, N-(5-(5-Phenylpyridin-3-yl)-1H-thieno[3,2-c]pyrazol-3-yl)propane-1-sulphonamide]
[1]
  GSK-3β inhibitory activity (in words): not active
  IC50: > 5000 nM
other
  melting point: 112 to 114 °C

## CC(C)C(=O)Nc1n[nH]c2cc(-c3cnccc3-c3ccccc3)sc12 [Compound 18a, N-(5-(4-Phenylpyridin-3-yl)-1H-thieno[3,2-c]pyrazol-3-yl)isobutyramide]
[1]
  IC50: 84 ± 3.2 nM
other
  melting point: > 240 °C

## Cc1ccccc1-c1ccncc1-c1cc2[nH]nc(NC(=O)C(C)C)c2s1 [Compound 18b, N-(5-(4-(2-Methylphenyl)pyridin-3-yl)-1H-thieno[3,2-c]pyrazol-3-yl)isobutyramide]
[1]
  IC50: 64 ± 2.3 nM
other
  melting point: > 240 °C

## Cc1cccc(-c2ccncc2-c2cc3[nH]nc(NC(=O)C(C)C)c3s2)c1 [Compound 18c, N-(5-(4-(3-Methylphenyl)pyridin-3-yl)-1H-thieno[3,2-c]pyrazol-3-yl)isobutyramide]
[1]
  IC50: 153 ± 6.6 nM
other
  melting point: 236 to 238 °C

## Cc1ccc(-c2ccncc2-c2cc3[nH]nc(NC(=O)C(C)C)c3s2)cc1 [Compound 18d, N-(5-(4-(4-Methylphenyl)pyridin-3-yl)-1H-thieno[3,2-c]pyrazol-3-yl)isobutyramide]
[1]
  IC50: 99 ± 4.8 nM
other
  melting point: 239 to 240 °C

## COc1ccccc1-c1ccncc1-c1cc2[nH]nc(NC(=O)C(C)C)c2s1 [Compound 18e, N-(5-(4-(2-Methoxyphenyl)pyridin-3-yl)-1H-thieno[3,2-c]pyrazol-3-yl)isobutyramide]
[1]
  IC50: 64 ± 2.7 nM
other
  melting point: 213 to 215 °C

## COc1cccc(-c2ccncc2-c2cc3[nH]nc(NC(=O)C(C)C)c3s2)c1 [Compound 18f, N-(5-(4-(3-Methoxyphenyl)pyridin-3-yl)-1H-thieno[3,2-c]pyrazol-3-yl)isobutyramide]
[1]
  IC50: 113 ± 8.6 nM
other
  melting point: 212 to 214 °C

## COc1ccc(-c2ccncc2-c2cc3[nH]nc(NC(=O)C(C)C)c3s2)cc1 [Compound 18g, N-(5-(4-(4-Methoxyphenyl)pyridin-3-yl)-1H-thieno[3,2-c]pyrazol-3-yl)isobutyramide]
[1]
  IC50: 105 ± 5.2 nM
other
  melting point: > 240 °C

## CC(C)C(=O)Nc1n[nH]c2cc(-c3cnccc3-c3ccccc3F)sc12 [Compound 18h, N-(5-(4-(2-Fluorophenyl)pyridin-3-yl)-1H-thieno[3,2-c]pyrazol-3-yl)isobutyramide]
[1]
  IC50: 94 ± 3.5 nM
other
  melting point: > 240 °C

## CC(C)C(=O)Nc1n[nH]c2cc(-c3cnccc3-c3cccc(F)c3)sc12 [Compound 18i, N-(5-(4-(3-Fluorophenyl)pyridin-3-yl)-1H-thieno[3,2-c]pyrazol-3-yl)isobutyramide]
[1]
  IC50: 173 ± 6.8 nM
other
  melting point: > 240 °C

## CC(C)C(=O)Nc1n[nH]c2cc(-c3cnccc3-c3ccc(F)cc3)sc12 [Compound 18j, N-(5-(4-(4-Fluorophenyl)pyridin-3-yl)-1H-thieno[3,2-c]pyrazol-3-yl)isobutyramide]
[1]
  IC50: 15 ± 0.3 nM
other
  melting point: > 240 °C

## CC(C)C(=O)Nc1n[nH]c2cc(-c3cnccc3-c3cccc(C(F)(F)F)c3)sc12 [Compound 18k, N-(5-(4-(3-(trifluoromethyl)phenyl)pyridin-3-yl)-1H-thieno[3,2-c]pyrazol-3-yl)isobutyramide]
[1]
  IC50: 107 ± 6.1 nM
other
  melting point: 202 to 204 °C

## CC(C)C(=O)Nc1n[nH]c2cc(-c3cnccc3-c3ccc(C(F)(F)F)cc3)sc12 [Compound 18l, N-(5-(4-(4-(trifluoromethyl)phenyl)pyridin-3-yl)-1H-thieno[3,2-c]pyrazol-3-yl)isobutyramide]
[1]
  IC50: 158 ± 8.9 nM
other
  melting point: > 240 °C

## CC(C)C(=O)Nc1n[nH]c2cc(-c3cnccc3-c3ccc(-c4ccccc4)cc3)sc12 [Compound 18m, N-(5-(4-([1,1'-Biphenyl]-4-yl)pyridin-3-yl)-1H-thieno[3,2-c]pyrazol-3-yl)isobutyramide]
[1]
  IC50: 387 ± 21.2 nM
other
  melting point: 159 to 161 °C

## CC(C)C(=O)Nc1n[nH]c2cc(-c3cnccc3-c3ccc4ccccc4c3)sc12 [Compound 18n, N-(5-(4-(naphthalen-2-yl)pyridin-3-yl)-1H-thieno[3,2-c]pyrazol-3-yl)isobutyramide]
[1]; compared with 18a
  fold less active than 18a (GSK-3β inhibition): about 2 fold
[1]
  IC50: 195 ± 10.4 nM
other
  melting point: > 240 °C

## [Cl-].[Li+] [LiCl, reference compound]
[2]
  p-GSK-3β/GAPDH ratio (Ser9): 0.60

— paper PMC9225722, “Synthesis and biological evaluation of thieno[3,2-c]pyrazol-3-amine derivatives as potent glycogen synthase kinase 3β inhibitors for Alzheimer’s disease” (Journal of Enzyme Inhibition and Medicinal Chemistry, 2022)
